# Experimental data reported in paper PMC7747769 (AIChE journal. American Institute of Chemical Engineers, 2019).
# What was measured:
# DR1 [1] = settings: DR1 and HA306–318 peptide; cited from earlier work
# DR1 [2] = format: binding, human
substance,measurement,setting,value
DNP-PKYVKQNTLKLAT [HA306–318],IC50,DR1 [1],~34 nM
same,SDS stability of DR1 complex,DR1 [2],migrated as an SDS-stable heterodimer
